Data as given in ChEMBL document CHEMBL1135773, “Purine and pyrimidine (P2) receptors as drug targets” (J Med Chem, 2002).

Experiments:
P2X purinoceptor 4 [1] = target: T1, P2X purinoceptor 4 (Rattus norvegicus, UniProt P51577); experiment: Antagonist activity against recombinant rat P2X purinoceptor 4 (P2X4) at 3 uM, expressed in Xenopus oocytes; type: functional, cell-based, Oocyte
T1 sequence (P51577 whole entry): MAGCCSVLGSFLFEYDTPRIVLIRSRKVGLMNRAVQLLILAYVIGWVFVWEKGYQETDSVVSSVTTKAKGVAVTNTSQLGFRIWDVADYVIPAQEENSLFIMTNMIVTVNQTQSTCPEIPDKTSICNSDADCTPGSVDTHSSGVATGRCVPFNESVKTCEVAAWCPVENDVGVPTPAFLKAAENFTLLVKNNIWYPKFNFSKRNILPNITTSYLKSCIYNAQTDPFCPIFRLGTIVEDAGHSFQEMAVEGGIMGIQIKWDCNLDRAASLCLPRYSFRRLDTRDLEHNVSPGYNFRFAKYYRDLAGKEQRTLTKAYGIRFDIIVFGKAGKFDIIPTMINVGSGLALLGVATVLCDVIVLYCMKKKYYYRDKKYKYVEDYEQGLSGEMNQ

P2Y purinoceptor 1 = P2Y purinoceptor 1 (Meleagris gallopavo, UniProt P49652); experiment: Evaluated for agonist activity against phospholipase C coupled P2Y purinoceptor 1 (P2Y1) of turkey erythrocytes; type: functional
P2Y purinoceptor 1, sequence (P49652 whole entry): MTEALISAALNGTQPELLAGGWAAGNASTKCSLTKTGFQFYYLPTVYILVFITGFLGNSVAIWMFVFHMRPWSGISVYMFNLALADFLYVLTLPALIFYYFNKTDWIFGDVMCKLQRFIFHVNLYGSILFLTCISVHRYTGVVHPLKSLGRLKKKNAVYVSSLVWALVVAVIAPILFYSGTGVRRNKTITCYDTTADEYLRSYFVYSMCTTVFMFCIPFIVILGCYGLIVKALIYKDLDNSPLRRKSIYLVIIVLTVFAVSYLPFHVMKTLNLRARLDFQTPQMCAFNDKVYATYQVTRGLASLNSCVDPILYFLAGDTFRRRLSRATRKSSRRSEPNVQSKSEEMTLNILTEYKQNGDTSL

P2X purinoceptor 1 [2] = target: T2, P2X purinoceptor 1 (Rattus norvegicus, UniProt P47824); experiment: The compound was evaluated for antagonist activity against recombinant rat P2X purinoceptor 1 (P2X1) at 1 uM, expressed in Xenopus oocytes; type: functional, cell-based, Oocyte
T2 sequence (P47824 whole entry): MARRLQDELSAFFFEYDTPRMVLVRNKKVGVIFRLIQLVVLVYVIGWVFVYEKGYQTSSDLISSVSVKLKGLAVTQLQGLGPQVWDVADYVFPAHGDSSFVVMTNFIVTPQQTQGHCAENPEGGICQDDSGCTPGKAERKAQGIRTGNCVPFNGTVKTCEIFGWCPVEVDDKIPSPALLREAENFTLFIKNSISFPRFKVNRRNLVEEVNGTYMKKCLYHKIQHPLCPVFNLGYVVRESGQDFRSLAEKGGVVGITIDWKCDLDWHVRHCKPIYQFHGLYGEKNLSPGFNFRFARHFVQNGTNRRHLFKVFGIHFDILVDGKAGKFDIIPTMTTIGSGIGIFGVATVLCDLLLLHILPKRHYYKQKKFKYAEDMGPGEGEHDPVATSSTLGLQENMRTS

P2X purinoceptor 1 [3] = target: T2, P2X purinoceptor 1; experiment: The compound was evaluated for antagonist activity against P2X purinoceptor 1 (P2X1) like receptor from rat vas deferens; type: functional
P2X purinoceptor 4 [4] = target: T3, P2X purinoceptor 4 (Homo sapiens, UniProt Q99571); experiment: Antagonist activity against recombinant human P2X purinoceptor 4 (P2X4); type: functional
T3 sequence (Q99571 whole entry): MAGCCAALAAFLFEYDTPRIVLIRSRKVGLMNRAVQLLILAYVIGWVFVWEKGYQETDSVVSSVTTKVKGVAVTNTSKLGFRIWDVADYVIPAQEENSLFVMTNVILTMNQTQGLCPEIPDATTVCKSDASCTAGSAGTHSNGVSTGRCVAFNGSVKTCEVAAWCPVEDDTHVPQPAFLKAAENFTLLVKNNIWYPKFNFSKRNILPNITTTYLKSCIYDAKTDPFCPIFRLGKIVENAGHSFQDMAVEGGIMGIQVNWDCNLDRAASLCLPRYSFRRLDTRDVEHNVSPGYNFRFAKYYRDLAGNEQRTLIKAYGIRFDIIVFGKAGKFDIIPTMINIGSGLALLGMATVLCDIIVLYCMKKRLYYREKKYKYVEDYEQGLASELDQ

P2X purinoceptor 2 = target: T4, P2X purinoceptor 2 (Rattus norvegicus, UniProt P49653); experiment: Antagonist activity against recombinant rat receptor P2X purinoceptor 2 (P2X2) at 10 uM, expressed in Xenopus oocytes; type: functional, cell-based, Oocyte
T4 sequence (P49653 whole entry): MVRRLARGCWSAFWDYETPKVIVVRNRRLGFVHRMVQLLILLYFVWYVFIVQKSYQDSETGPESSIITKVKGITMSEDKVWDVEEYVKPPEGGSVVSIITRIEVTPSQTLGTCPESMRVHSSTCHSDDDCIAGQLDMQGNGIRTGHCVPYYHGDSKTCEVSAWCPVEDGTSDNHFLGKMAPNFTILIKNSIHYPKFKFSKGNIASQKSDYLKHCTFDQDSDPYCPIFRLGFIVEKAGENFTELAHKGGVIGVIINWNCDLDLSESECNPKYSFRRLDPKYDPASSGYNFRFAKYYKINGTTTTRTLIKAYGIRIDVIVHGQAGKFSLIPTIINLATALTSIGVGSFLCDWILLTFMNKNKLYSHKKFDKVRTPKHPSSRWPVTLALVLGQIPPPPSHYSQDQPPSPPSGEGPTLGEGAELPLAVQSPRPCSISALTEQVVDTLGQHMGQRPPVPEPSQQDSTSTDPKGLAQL

P2X purinoceptor 3 = target: T5, P2X purinoceptor 3 (Homo sapiens, UniProt P56373); experiment: Antagonist activity against recombinant human P2X purinoceptor 3 (P2X3 ); type: functional
T5 sequence (P56373 whole entry): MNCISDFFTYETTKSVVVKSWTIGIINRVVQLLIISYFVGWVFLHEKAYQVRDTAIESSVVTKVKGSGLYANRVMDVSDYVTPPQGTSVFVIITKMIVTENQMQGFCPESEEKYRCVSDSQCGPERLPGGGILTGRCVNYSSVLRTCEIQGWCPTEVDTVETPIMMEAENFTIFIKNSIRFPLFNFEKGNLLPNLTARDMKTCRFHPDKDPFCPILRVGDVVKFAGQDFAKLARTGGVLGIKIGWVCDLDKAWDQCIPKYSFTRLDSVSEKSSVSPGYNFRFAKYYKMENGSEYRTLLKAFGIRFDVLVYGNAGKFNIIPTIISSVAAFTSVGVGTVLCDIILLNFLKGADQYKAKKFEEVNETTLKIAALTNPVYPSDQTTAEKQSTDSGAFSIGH

P2Y purinoceptor 11 = target: T6, P2Y purinoceptor 11 (Homo sapiens, UniProt Q96G91); experiment: Agonist activity against phospholipase C coupled human P2Y purinoceptor 11 (P2Y11); type: functional
T6 sequence (Q96G91 whole entry): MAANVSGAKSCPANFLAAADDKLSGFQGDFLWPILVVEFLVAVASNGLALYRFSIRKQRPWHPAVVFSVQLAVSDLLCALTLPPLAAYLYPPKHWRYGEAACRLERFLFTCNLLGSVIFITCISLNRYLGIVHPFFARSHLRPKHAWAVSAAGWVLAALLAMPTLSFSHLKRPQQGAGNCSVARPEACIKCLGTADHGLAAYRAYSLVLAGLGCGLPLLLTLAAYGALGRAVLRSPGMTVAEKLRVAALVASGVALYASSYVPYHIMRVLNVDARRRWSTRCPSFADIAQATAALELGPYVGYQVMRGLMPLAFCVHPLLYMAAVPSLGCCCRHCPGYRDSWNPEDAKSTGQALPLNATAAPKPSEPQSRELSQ

P2Y purinoceptor 12 = P2Y purinoceptor 12 (Rattus norvegicus, UniProt Q9EPX4); experiment: Antagonist activity against phospholipase C coupled rat P2Y purinoceptor 12 (P2Y12); type: functional
P2Y purinoceptor 12, sequence (Q9EPX4 whole entry): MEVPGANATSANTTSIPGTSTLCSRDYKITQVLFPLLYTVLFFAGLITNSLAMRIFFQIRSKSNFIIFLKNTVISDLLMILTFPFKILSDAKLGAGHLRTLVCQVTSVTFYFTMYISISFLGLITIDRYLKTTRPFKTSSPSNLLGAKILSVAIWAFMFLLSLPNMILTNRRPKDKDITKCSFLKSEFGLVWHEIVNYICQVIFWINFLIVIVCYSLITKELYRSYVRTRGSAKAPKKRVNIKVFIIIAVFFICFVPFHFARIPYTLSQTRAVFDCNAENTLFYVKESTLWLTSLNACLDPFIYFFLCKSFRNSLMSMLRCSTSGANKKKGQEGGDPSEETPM

P2X purinoceptor 1 [5] = target: T7, P2X purinoceptor 1 (Homo sapiens, UniProt P51575); experiment: Antagonist activity against recombinant human P2X purinoceptor 1 (P2X1 ); type: functional
T7 sequence (P51575 whole entry): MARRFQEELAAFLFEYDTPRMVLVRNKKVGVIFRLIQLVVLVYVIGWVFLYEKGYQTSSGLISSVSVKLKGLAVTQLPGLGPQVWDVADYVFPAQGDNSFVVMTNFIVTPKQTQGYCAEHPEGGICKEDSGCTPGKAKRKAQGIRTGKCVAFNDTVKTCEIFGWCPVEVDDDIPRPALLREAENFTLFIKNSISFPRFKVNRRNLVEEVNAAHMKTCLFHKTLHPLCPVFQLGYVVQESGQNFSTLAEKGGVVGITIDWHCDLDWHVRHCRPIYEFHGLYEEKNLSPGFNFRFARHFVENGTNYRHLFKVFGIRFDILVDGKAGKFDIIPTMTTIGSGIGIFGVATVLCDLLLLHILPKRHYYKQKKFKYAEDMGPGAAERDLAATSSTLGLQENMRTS

P2X purinoceptor 4 [6] = target: T1, P2X purinoceptor 4; experiment: Antagonist activity against recombinant rat P2X purinoceptor 4 (P2X4) at 30 uM, expressed in Xenopus oocytes; type: functional, cell-based, Oocyte
P2X purinoceptor 5 = target: T8, P2X purinoceptor 5 (Rattus norvegicus, UniProt P51578); experiment: Antagonist activity against recombinant rat P2X purinoceptor 5 (P2X5); type: functional
T8 sequence (P51578 whole entry): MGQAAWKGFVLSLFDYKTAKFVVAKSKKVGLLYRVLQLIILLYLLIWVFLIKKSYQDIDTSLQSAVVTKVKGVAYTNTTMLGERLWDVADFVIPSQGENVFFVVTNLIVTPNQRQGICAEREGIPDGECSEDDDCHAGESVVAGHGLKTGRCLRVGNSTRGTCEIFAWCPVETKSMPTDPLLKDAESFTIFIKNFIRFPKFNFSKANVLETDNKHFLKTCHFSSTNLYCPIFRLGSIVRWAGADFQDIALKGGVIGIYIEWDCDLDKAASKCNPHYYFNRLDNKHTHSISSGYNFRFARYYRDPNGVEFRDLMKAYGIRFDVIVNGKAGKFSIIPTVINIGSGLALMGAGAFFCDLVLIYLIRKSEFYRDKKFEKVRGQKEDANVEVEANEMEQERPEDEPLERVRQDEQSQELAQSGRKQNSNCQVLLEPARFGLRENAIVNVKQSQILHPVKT

P2X purinoceptor 6 = P2X purinoceptor 6 (Rattus norvegicus, UniProt P51579); experiment: Antagonist activity against recombinant rat P2X purinoceptor 6 (P2X6 ); type: functional
P2X purinoceptor 6, sequence (P51579 whole entry): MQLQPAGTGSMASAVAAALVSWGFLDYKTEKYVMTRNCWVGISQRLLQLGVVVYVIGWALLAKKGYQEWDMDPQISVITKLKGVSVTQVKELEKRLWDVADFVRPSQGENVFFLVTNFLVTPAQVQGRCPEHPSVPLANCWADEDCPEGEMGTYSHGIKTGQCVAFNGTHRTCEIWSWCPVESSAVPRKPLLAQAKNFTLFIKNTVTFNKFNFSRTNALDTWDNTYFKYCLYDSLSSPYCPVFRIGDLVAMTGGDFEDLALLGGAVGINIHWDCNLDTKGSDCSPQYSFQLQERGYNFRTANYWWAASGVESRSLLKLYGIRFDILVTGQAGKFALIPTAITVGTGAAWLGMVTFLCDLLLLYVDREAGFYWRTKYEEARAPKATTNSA

P2Y purinoceptor 6 = P2Y purinoceptor 6 (Homo sapiens, UniProt Q15077); experiment: The compound was evaluated for agonist activity against phospholipase C coupled recombinant human P2Y purinoceptor 6 (P2Y6); type: functional
P2Y purinoceptor 6, sequence (Q15077 whole entry): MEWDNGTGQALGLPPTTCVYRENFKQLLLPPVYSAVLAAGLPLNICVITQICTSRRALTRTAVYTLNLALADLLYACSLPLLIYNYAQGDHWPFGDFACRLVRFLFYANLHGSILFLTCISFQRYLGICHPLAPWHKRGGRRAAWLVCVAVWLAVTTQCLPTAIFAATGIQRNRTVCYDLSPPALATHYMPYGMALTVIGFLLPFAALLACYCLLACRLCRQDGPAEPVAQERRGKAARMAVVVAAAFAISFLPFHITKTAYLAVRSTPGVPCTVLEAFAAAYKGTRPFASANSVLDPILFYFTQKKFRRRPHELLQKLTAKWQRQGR

P2X purinoceptor 1 [7] = target: T2, P2X purinoceptor 1; experiment: The compound was evaluated for antagonist activity against recombinant rat P2X purinoceptor 1 (P2X1); type: functional
P2Y purinoceptor 2 = P2Y purinoceptor 2 (Homo sapiens, UniProt P41231); experiment: Evaluated for agonist activity against phospholipase C coupled recombinant human P2Y purinoceptor 2 (P2Y2); type: functional
P2Y purinoceptor 2, sequence (P41231 whole entry): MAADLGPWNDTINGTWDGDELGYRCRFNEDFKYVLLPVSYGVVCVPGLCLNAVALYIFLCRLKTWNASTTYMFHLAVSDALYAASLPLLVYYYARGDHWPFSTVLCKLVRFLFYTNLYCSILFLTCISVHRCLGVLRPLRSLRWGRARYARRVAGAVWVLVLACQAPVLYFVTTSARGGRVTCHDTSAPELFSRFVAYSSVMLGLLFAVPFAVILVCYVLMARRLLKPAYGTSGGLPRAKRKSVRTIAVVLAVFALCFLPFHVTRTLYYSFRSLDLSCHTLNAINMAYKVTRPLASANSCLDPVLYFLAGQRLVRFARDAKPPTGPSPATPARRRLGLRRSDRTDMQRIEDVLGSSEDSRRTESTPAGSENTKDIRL

P2Y purinoceptor 4 = P2Y purinoceptor 4 (Homo sapiens, UniProt P51582); experiment: The compound was evaluated for antagonist activity against phospholipase C coupled recombinant human P2Y purinoceptor 4 (P2Y4); type: functional
P2Y purinoceptor 4, sequence (P51582 whole entry): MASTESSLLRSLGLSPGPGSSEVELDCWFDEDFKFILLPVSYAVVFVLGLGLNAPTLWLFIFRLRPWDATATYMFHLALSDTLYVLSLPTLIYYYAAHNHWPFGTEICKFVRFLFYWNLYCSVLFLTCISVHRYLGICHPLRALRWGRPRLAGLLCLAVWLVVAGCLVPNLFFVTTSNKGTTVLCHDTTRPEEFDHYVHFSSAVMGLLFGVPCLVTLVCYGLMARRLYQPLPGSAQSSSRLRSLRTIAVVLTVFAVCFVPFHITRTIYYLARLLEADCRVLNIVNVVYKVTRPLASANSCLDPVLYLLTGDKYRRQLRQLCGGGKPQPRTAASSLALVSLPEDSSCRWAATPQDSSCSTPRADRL

CCCCCCSc1nc(N)c2ncn([C@@H]3O[C@H](COP(=O)(O)O)[C@@H](O)[C@H]3O)c2n1
EC50 (P2X purinoceptor 4 [1]): 20 µM
EC50 (P2Y purinoceptor 1): 0.0048 µM
EC50 (P2X purinoceptor 1 [2]): 0.84 µM

Cc1cc(C)c(Nc2cc(S(=O)(=O)O)c(N)c3c2C(=O)c2ccccc2C3=O)c(C)c1 [ACID BLUE 129]
Kd (P2X purinoceptor 1 [3]): > 100 µM

Nc1ncnc2c1ncn2[C@@H]1O[C@H](COP(=O)(O)OP(=O)(O)S)[C@@H](O)[C@H]1O (some centres undefined)
EC50 (P2X purinoceptor 4 [4]): 25 µM
EC50 (P2X purinoceptor 2): 100 µM
EC50 (P2X purinoceptor 3): 8.8 µM
EC50 (P2Y purinoceptor 11): 30 µM
EC50 (P2Y purinoceptor 12): 0.082 µM
EC50 (P2X purinoceptor 1 [5]): 2.5 µM

CSc1nc(N)c2ncn([C@@H]3O[C@H](COP(=O)(O)OP(=O)(O)OP(=O)(O)O)[C@@H](O)[C@H]3O)c2n1
EC50 (P2X purinoceptor 4 [4]): 1 µM
EC50 (P2X purinoceptor 4 [6]): 7.4 µM
EC50 (P2X purinoceptor 5): 1 µM
EC50 (P2X purinoceptor 6): 0.6 µM
EC50 (P2X purinoceptor 2): 1.5 µM
EC50 (P2X purinoceptor 3): 0.35 µM
EC50 (P2Y purinoceptor 11): 50 µM
EC50 (P2Y purinoceptor 12): 0.0011 µM
EC50 (P2Y purinoceptor 6): 100 µM
EC50 (P2X purinoceptor 1 [5]): 0.054 µM

Cc1nc(/N=N/c2cc(S(=O)(=O)O)c3cc([N+](=O)[O-])cc(S(=O)(=O)O)c3c2)c(COP(=O)(O)O)c(C=O)c1O
EC50 (P2X purinoceptor 1 [7]): 0.014 µM

CNc1nc(Cl)nc2c1ncn2[C@H]1C[C@@H](OP(=O)(O)O)[C@]2(COP(=O)(O)O)C[C@H]12
EC50 (P2Y purinoceptor 2): > 100 µM
EC50 (P2Y purinoceptor 11): > 100 µM
EC50 (P2Y purinoceptor 12): > 100 µM
EC50 (P2Y purinoceptor 4): > 100 µM
EC50 (P2Y purinoceptor 6): > 100 µM
EC50 (P2Y purinoceptor 1): 0.052 µM

Nc1c(S(=O)(=O)O)cc(Nc2ccc(Nc3nc(Cl)nc(Cl)n3)c(S(=O)(=O)O)c2)c2c1C(=O)c1ccccc1C2=O
IC50 (P2X purinoceptor 1 [3]): 8.8 µM

CSc1nc(N)c2ncn([C@@H]3O[C@H](COP(=O)(O)OP(=O)(O)O)[C@@H](O)[C@H]3O)c2n1
EC50 (P2Y purinoceptor 2): > 100 µM
